Measurements from patent US5298496A (Chinoin Gyogyszer- ES Vegyeszeti Termekek Gyara Rt., priority 1990, dated 1994).

What was measured:
[1] = UV spectrum shift of dilute aqueous SIN 1 solution (about 10 μg/ml) with cyclodextrins, diffuse lighting, room temperature; format: physicochemical; conditions: for efficiency sequence concluded from the UV spectrum shift: stabilizing effect on SIN 1, ranking in words
Protocol: The solutions were stored at room temperature (20°-22° C.) in diffuse lighting and in certain periods (daily) the UV spectrum of the solutions were registered in the interval between 220-350 nm. As a control only the aqueous solution, and the 0,05N hydrochloric acid solution were used respectively. […] The pH values of the applied cyclodextrin solutions of greatest concentration differed only within ±0.2 unit from the pH value of distilled water.
The decomposition hindering, slow down effect of DIMEB (2,6-di-O-methyl-β-cyclodextrin) is definite too. In the presence of 20 mg/ml DIMEB the spectrum of the solution has shown only a shift within 1 nm after a 6 day storage. We also tested the stabilizing effect of TRIMEB (2,3,6-tri-O-methyl-β-cyclodextrin), of γ-CO, β-CO and of hydroxypropyl-β-CO. The efficiency sequence concluded from the UV spectrum shift was as follows: […]

[2] = Transformation SIN 1→SIN 1A→SIN 1C in the presence of cyclodextrins in 0.02M acetate buffer pH 5.5 (HPLC); format: physicochemical
From the text: (The SIN 1A was detected by HPLC)

rats = assay: Cardioprotective activity on rats, p.o.; format: in vivo
[3] = Hydrolytic decomposition of SIN 1 to SIN 1C as function of pH (literature / background); format: physicochemical; conditions: diffused lighting
Protocol: It can be generally said that the sydnonimine derivatives are sensitive to extreme pH values, and are decomposed quickly. […] The process is strictly pH dependent, e.g. to achieve a decomposition of 10% (SIN 1C) 53 sec. at a pH value of 8, 15 hours at a pH of 6, 67 days at a pH of 4, and 13 years at a pH of 1-2 are necessary. (Chem. Pharm. Bull. 19/6 1079, 1971). […] The decomposition can be followed from the UV spectrum directly.

[4] = Change of λ max of SIN 1 with time in phosphate buffers of pH 6.4, 7.0 and 7.6 with and without CDPSI (UV spectrophotometry); format: physicochemical; conditions: for λ max.: 1 mg/ml SIN 1, +CDPSI 20 mg/ml
[5] = Thin-layer chromatography of SIN 1 decomposition with and without CDPSI; format: physicochemical; conditions: 1 day of storage
Protocol: In such a concentration range spectrophotometric measurement dose not give a descriptive picture. For this reason the decomposition degree was determined by thin-layer chromatography in the following way: From the solutions 10 μl were dropwise added on a Kieselgel 60 F254 plate (10×10 cm, Merck). Running mixture: cyclohexane:ethyl-acetate in a ratio of 1:1. The running tub was let for 30 minutes to saturation. On the plate also SIN 1C reference solution was dropwise added. On the dropping spot the plate was dried in a cold air flow protected from light and it was let to run up to a […] height. During the running period the running tub was put on a dark place. After evaporation of the solvent the plate was evaluated visually in UV light at 254 nm.

[6] = Membrane permeation test, diffusion of SIN 1 through Visking type cellophane membrane; format: physicochemical; conditions: SIN 1 alone, 1 mg/ml, 37°±1° C.
Protocol: Visking type cellophane membrane (average pore diameter 24 Angstroms) was used. […] The solutions were stirred by magnetic stirrers and were kept at 37°±1° C. […] The test was repeated in the presence of different cyclodextrins at different concentrations in the donor cell compartment.

[7] = test system: potassium depolarized strips; assay: Relaxing effect on potassium depolarized strips
[8] = HPLC decomposition test of SIN 1 in pH 6.3 phosphate buffer, 5 weeks; format: physicochemical; conditions: room temperature, protected from light, complex in pH 6.3 phosphate buffer with 50 mg/ml CDPSI, control in distilled water
Protocol: (§1) The quantitive measurement of the decomposition degree was carried out by the HPLC method too.
(§2) HPPLC measurement circumstances to the separation of SIN 1-SIN 1 C
(§3) ______________________________________
(§4) Beckman 114 M Solvent Delivery Module,
(§5) 165 Variable Wavelength Detektor, Hewlett-Packard
(§6) Column: Ultrasphere ODS analytical column […],
(§7) Eluent: 0.05 M sodium acetate:
(§8) flowing rate: 1.0 ml/min.
(§9) chart speed: 0.5 cm/min.
(§10) retention times: tR SIN1: 2.9 min.
1. […] Complex was formed with 50 mg/ml (100 fold quantity) of CDPSI. After storage of 5 weeks the HPLC chromatograms were evaluated.

[9] = HPLC decomposition test of SIN 1 in pH 7 phosphate buffer, 4 days; format: physicochemical
Protocol: as §1, §2, §3, §4, §5, §6, §7, §8, §9, §10
2. The test was carried out in a pH 7 phosphate buffer too, choosing similar concentration circumstances.
The chromatograms obtained after 4 days storage were evaluated.

[10] = 4 days, 0,5 mg/ml SIN 1, 50 mg/ml CDPSI

COC[C@H]1O[C@@H]2O[C@H]3[C@H](OC)[C@@H](OC)[C@@H](O[C@H]4[C@H](OC)[C@@H](OC)[C@@H](O[C@H]5[C@H](OC)[C@@H](OC)[C@@H](O[C@H]6[C@H](OC)[C@@H](OC)[C@@H](O[C@H]7[C@H](OC)[C@@H](OC)[C@@H](O[C@H]8[C@H](OC)[C@@H](OC)[C@@H](O[C@H]1[C@H](OC)[C@H]2OC)O[C@@H]8COC)O[C@@H]7COC)O[C@@H]6COC)O[C@@H]5COC)O[C@@H]4COC)O[C@@H]3COC [TRIMEB, 2,3,6-tri-O-methyl-β-cyclodextrin]
efficiency sequence concluded from the UV spectrum shift [1]: CDPSI>DIMEB>TRIMEB>βCO≥HPβCO

OC[C@H]1O[C@@H]2O[C@H]3[C@H](O)[C@@H](O)[C@@H](O[C@H]4[C@H](O)[C@@H](O)[C@@H](O[C@H]5[C@H](O)[C@@H](O)[C@@H](O[C@H]6[C@H](O)[C@@H](O)[C@@H](O[C@H]7[C@H](O)[C@@H](O)[C@@H](O[C@H]8[C@H](O)[C@@H](O)[C@@H](O[C@H]1[C@H](O)[C@H]2O)O[C@@H]8CO)O[C@@H]7CO)O[C@@H]6CO)O[C@@H]5CO)O[C@@H]4CO)O[C@@H]3CO [βCO, β-cyclodextrin]
efficiency sequence concluded from the UV spectrum shift [1]: CDPSI>DIMEB>TRIMEB>βCO≥HPβCO
SIN 1A found vs control [2]: more than 7 fold

COC[C@H]1O[C@@H]2O[C@H]3[C@H](O)[C@@H](OC)[C@@H](O[C@H]4[C@H](O)[C@@H](OC)[C@@H](O[C@H]5[C@H](O)[C@@H](OC)[C@@H](O[C@H]6[C@H](O)[C@@H](OC)[C@@H](O[C@H]7[C@H](O)[C@@H](OC)[C@@H](O[C@H]8[C@H](O)[C@@H](OC)[C@@H](O[C@H]1[C@H](O)[C@H]2OC)O[C@@H]8COC)O[C@@H]7COC)O[C@@H]6COC)O[C@@H]5COC)O[C@@H]4COC)O[C@@H]3COC [DIMEB, 2,6-di-O-methyl-β-cyclodextrin]
shift of the UV spectrum ([1]; 6 day storage, 20 mg/ml DIMEB): ≤ 1 nm
efficiency sequence concluded from the UV spectrum shift [1]: CDPSI>DIMEB>TRIMEB>βCO≥HPβCO

N=c1c[n+](N2CCOCC2)[n-]o1 [SIN 1, 3-morpholino-sydnonimine]
activity in words (rats; 1 mg/kg): does not exert an activity
cardioprotective activity (rats; 1 mg/kg (complex: same active ingredient)): 11%
time of decomposition in diluted aqueous solution [3]: 1 to 3 days
Δλ ([4]; buffer pH 6,4, after 6 days): 12 nm
λ max. ([4]; pH 6.4, 0 days (at preparation)): 291.5 nm
λ max. ([4]; pH 6.4, 1 day): 289.0 nm
λ max. ([4]; pH 6.4, 4 days): 284.9 nm
λ max. ([4]; pH 6.4, 6 days): 279.8 nm
λ max. ([4]; pH 7.0, 0 days (at preparation)): 290.6 nm
λ max. ([4]; pH 7.0, 1 day): 280.4 nm
λ max. ([4]; pH 7.0, 6 days): 277.3 nm
λ max. ([4]; pH 7.6, 0 days (at preparation)): 291.2 nm
λ max. ([4]; pH 7.6, 1 day): 276.4 nm
λ max. ([4]; pH 7.6, 6 days): 277.6 nm
unchanged SIN 1 (TLC) ([5]; pH 7 buffer): still perceptible
unchanged SIN 1 (TLC) ([5]; pH 7.6 buffer): practically no longer detectable
T 50% (diffusion half life of SIN 1) [6]: 54 min
T/2 (duration of action) ([7]; 1 or 2 μM): 47 min
T/max (time of maximal relaxation) ([7]; after administration, 1 or 2 μM): 18 min
inhibition at 1 µM ([7]; read-out: maximal relaxation of sustained contraction): 58%
Active ingredient content: SIN 1 [8]: 0,016
time to practically complete transformation into SIN 1C ([1]; aqueous solution without cyclodextrin, stored similarly): 2 to 3 days
decomposition of control solution ([1]; distilled water, 1 week, without CDPSI, in words): practically decomposed
pH value of the solutions after storage ([9]; 4 days): 6.57
Active ingredient content: SIN 1 [9, 10]: 0.041 mg/mL
Active ingredient content: SIN 1C [9, 10]: 0.125 mg/mL
